Measurements published in ChEMBL document CHEMBL4321852, “Structure-Based and Property-Driven Optimization of N-Aryl Imidazoles toward Potent and Selective Oral RORγt Inhibitors” (J Med Chem, 2019).

Columns and labels:
[1] = target: T1, Nuclear receptor ROR-gamma (Homo sapiens, UniProt P51449); assay: Displacement of RIP140 cofactor peptide from human His6-tagged RORgammat LBD (264 to 518 residues) by TR-FRET assay
T1 sequence (P51449 whole entry): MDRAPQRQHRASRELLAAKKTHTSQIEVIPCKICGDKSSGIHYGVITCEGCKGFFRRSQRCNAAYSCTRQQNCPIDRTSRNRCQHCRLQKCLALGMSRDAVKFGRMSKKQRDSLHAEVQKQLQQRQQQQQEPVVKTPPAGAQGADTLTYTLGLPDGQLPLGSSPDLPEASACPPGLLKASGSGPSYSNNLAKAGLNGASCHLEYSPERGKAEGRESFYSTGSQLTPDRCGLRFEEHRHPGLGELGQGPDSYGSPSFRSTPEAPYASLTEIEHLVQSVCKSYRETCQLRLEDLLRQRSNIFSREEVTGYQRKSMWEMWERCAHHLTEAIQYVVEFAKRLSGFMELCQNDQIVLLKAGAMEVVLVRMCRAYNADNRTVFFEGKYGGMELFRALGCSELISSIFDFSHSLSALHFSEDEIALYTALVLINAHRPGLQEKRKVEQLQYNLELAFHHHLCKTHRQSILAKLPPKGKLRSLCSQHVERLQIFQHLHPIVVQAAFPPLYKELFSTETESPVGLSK

[2] = target: T1, Nuclear receptor ROR-gamma; assay: Inhibition of human full-length eGFP-tagged RORgammat expressed in human HUT78 T-cells assessed as inhibition of PMA/CD3 monoclonal antibody stimulated IL-17 secretion after 48 hrs by ELISA; format: cell-based
[3] = Inhibition of RORgammat in rat CD4+ T-cells polarized with Th17 cytokine mix assessed as inhibition of IL-17 secretion
[4] = Inverse agonist activity at RORgammat in rat whole blood assessed as reduction in Con A/IL-23-stimulated IL-17 secretion after 72 hrs by ELISA
[5] = target: T1, Nuclear receptor ROR-gamma; assay: Inverse agonist activity at RORgammat in human whole blood assessed as reduction in Con A/IL-23-stimulated IL-17 secretion after 72 hrs by ELISA; format: tissue-based
[6] = Distribution coefficient of the compound, high-throughput logD using octanol-buffer at pH 7.4 by LC-MS/MS analysis shake flask method; format: physicochemical
[7] = Volume of distribution at steady state in Sprague-Dawley rat at 1 mg/kg, iv; format: ADME, organism-based; conditions: in vivo, read-out: Vdss
[8] = Terminal half life in Sprague-Dawley rat at 1 mg/kg, iv; format: ADME, organism-based; conditions: in vivo, read-out: beta t1/2 (converted)
[9] = Dose normalized AUC in Sprague-Dawley rat at 1 mg/kg, iv; format: ADME, organism-based; conditions: in vivo
[10] = Dose normalized AUC in DA rat at 5 mg/kg, po; format: ADME, organism-based; conditions: in vivo
[11] = Oral bioavailability in DA rat at 3 mg/kg; format: ADME, organism-based; conditions: in vivo
[12] = target: T1, Nuclear receptor ROR-gamma; assay: Inhibition of Gal4-tagged RORgammat LBD (unknown origin) by cell based luciferase reporter gene assay
[13] = target: T2, Nuclear receptor ROR-beta (Homo sapiens, UniProt Q92753); assay: Inhibition of Gal4-tagged RORbeta LBD (unknown origin) by cell based luciferase reporter gene assay
T2 sequence (Q92753 whole entry): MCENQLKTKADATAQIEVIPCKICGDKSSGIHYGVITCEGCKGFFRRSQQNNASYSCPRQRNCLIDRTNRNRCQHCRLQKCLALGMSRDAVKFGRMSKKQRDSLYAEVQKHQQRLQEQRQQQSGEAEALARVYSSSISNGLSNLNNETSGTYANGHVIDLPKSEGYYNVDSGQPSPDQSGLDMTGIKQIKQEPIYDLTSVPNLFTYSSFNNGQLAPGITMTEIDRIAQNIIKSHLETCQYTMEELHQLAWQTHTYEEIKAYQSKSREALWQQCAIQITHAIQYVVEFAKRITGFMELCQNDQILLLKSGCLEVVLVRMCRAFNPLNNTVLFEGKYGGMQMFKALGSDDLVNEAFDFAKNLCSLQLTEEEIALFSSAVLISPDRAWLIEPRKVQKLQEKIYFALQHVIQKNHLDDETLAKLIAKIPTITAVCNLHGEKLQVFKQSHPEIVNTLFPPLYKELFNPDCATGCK

[14] = target: T3, Estrogen receptor (Homo sapiens, UniProt P03372); assay: Inhibition of Gal4-tagged ERalpha LBD (unknown origin) by cell based luciferase reporter gene assay
T3 sequence (P03372 whole entry): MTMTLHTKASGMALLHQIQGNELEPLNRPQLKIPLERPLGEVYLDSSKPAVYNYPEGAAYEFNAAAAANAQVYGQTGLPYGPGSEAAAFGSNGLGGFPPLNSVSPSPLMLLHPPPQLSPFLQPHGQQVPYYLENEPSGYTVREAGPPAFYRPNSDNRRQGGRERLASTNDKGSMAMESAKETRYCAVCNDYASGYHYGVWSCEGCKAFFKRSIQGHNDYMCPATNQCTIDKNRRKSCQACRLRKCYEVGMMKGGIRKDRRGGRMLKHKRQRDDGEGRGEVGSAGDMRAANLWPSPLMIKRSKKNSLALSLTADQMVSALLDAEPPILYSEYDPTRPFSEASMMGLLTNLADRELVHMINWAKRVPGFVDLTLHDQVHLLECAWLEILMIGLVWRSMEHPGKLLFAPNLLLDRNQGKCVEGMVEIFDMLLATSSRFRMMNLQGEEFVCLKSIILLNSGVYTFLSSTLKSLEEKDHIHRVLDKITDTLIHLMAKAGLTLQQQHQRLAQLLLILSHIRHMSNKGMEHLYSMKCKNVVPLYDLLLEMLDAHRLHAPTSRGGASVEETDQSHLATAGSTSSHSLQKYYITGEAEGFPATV

[15] = target: T1, Nuclear receptor ROR-gamma; assay: Inhibition of human GAL4-DBD fused RORgammat LBD expressed in human Jurkat cells assessed as inhibition of receptor transactivation after 24 hrs by luciferase reporter gene assay; format: cell-based
[16] = target: Cytochrome P450 3A4 (Homo sapiens, UniProt P08684); assay: Time dependent inhibition of CYP3A4 (unknown origin); format: ADME; parameters: concentration or dose not given beside the values
[17] = tested on: Rattus norvegicus; assay: Anti-inflammatory activity in mBSA/CFA-immunized Lewis rat delayed-type hypersensitivity model assessed as reduction in ear swelling at 1 to 15 mg/kg, po via gavage administered twice daily for 2 days treated prior to mBSA/CFA challenge measured after up to 50 hrs; format: functional, organism-based

Cytochrome P450 3A4, sequence (P08684 whole entry): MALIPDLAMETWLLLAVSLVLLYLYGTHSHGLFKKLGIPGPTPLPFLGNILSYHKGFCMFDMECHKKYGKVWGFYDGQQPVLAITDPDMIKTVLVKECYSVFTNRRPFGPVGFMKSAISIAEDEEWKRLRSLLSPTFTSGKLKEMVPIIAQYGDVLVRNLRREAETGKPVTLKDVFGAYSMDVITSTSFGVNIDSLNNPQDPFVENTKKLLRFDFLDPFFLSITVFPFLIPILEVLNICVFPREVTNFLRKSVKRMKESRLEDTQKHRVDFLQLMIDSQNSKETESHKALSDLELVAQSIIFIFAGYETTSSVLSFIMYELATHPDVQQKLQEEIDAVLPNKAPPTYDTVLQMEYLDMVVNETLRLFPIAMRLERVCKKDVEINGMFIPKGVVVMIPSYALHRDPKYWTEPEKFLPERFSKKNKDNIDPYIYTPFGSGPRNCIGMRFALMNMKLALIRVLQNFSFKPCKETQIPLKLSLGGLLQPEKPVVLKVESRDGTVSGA

In the case of `Cc1c(C2(C(F)(F)F)CC2)nc(C2CC2)n1-c1c(Cl)ccc(N2CC3(CC(C(=O)O)C3)C2)c1Cl` (single isomer, unassigned; atropisomer), the IC50 [1] is reported as 5 nM, the IC50 [2] is reported as 70 nM and the IC50 [3] is reported as 387 nM. It also gave an IC50 [4] of 702 nM, an IC50 [5] of 1340 nM and a logD [6] of 2. For the same molecule, the Vd [7] was 1 L/kg, the half-life [8] was 5.3 h and the AUC/dose [9] was 12680 nM·h. The AUC/dose [10] was 11391 nM·h, the bioavailability [11] was 90% and the IC50 [12] was 151 nM. The IC50 [13] was > 10000 nM, the IC50 [14] was > 10000 nM and the IC50 [15] was 151 nM. The K [16] was 0.005 min⁻¹ and the Activity [17] was “Dose-dependent effect”.
